This is an account of results in article PMC3348126, “Pharmacogenetics Meets Metabolomics: Discovery of Tryptophan as a New Endogenous OCT2 Substrate Related to Metformin Disposition” (PLoS ONE, 2012).

What all share (type): cell-based
In test [1] the target is T1, Organic cation transporter 2 (OCT2) 808G>T variant (Homo sapiens, UniProt O15244).
T1 construct: gene SLC22A2; OCT2 808G>T variant expressed in oocytes
T1 sequence (O15244 1-555): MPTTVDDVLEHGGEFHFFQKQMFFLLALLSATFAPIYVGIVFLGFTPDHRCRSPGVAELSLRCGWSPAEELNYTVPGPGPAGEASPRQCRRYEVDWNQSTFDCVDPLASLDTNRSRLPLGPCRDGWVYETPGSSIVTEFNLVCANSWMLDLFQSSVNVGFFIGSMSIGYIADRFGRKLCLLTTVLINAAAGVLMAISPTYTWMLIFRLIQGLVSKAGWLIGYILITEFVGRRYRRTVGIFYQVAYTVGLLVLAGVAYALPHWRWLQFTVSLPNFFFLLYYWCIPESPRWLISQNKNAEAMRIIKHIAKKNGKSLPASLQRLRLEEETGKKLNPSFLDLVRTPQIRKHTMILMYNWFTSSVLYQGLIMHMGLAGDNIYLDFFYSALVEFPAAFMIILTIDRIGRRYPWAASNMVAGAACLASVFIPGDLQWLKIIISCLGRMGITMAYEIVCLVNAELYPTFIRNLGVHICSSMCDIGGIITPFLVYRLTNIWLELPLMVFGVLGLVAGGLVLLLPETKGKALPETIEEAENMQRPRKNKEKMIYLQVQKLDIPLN
Briefly: [3H]tryptophan uptake ([…]) in oocytes expressing the variant.

The target of test [2] is T2, OCT1 (Homo sapiens, UniProt O15245).
T2 construct: gene SLC22A1; OCT1 expressed in oocytes (pcDNA3.1-OCT1)
T2 sequence (O15245 1-554): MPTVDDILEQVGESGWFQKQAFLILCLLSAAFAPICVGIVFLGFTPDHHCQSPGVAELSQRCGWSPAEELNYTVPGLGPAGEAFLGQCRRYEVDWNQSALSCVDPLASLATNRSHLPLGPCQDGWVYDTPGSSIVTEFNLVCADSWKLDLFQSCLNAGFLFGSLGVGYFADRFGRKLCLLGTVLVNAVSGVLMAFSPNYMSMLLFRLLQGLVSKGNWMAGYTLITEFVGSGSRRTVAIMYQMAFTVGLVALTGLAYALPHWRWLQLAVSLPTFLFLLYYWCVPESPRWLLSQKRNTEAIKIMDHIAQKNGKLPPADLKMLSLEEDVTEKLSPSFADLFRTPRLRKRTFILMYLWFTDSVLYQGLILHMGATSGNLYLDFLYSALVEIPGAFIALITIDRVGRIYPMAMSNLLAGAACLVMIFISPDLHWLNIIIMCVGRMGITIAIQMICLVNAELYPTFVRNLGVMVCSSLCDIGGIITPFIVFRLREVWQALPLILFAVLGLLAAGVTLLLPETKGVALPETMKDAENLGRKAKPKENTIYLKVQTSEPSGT
Briefly: inhibition of OCT1-mediated [3H]MPP+ uptake and direct tryptophan uptake in oocytes. The settings on record: read-out: % inhibition at 1 mM.

For test [3], the target named is T3, Organic cation transporter 2 (OCT2) (Homo sapiens, UniProt O15244).
T3 construct: gene SLC22A2
The test can be described thus: inhibition of [3H]MPP+ uptake and direct [3H]tryptophan uptake in OCT2-expressing oocytes.

The target in test [4] is T3, Organic cation transporter 2 (OCT2). The test can be described thus: [3H]MPP+ uptake ([…]) in OCT2-expressing oocytes, water-injected background subtracted.
Test [5] has as its target T4, Organic cation transporter 2 (OCT2) (Homo sapiens, UniProt O15244).
T4 construct: gene SLC22A2; OCT2 expressed in oocytes
T4 sequence (O15244 1-555): T1 sequence (O15244 1-555)
The test can be described thus: inhibition of [3H]MPP+ uptake in OCT2-expressing oocytes.

pIC50: −log10 of the molar value.

For `N[C@@H](Cc1c[nH]c2ccccc12)C(=O)O` [L-tryptophan], in test [1], the “[3H]tryptophan uptake (100 nM) in oocytes expressing the variant” value came out at 0.14 fmol/min/oocyte. In addition, the inhibition at 1000 µM in test [2] amounted to 50%. In addition, the pIC50 in test [3] was 2.21.

As for `C[n+]1ccc(-c2ccccc2)cc1` [MPP+], the “[3H]MPP+ uptake (18.5 nM) in OCT2-expressing oocytes, water-injected background” value in test [4] amounted to 2.9 fmol/min/oocyte.

`O=c1ccn([C@@H]2O[C@H](CO)[C@@H](O)[C@H]2O)c(=O)[nH]1` [uridine] showed a pIC50 in test [5] of 1.29.
